{"source": "paper PMC12305494", "about": "“Discovery of PXR Antagonist MI891 and PXR Degrader MI1013 and Their Roles in Hepatic Gene Regulation” (Journal of Medicinal Chemistry, 2025)", "assay_in_all_cases": "Off-target kinase panel", "format_in_all_cases": "biochemical", "key": {"PKA(h)": {"target": "T1, PKA(h) (Homo sapiens, UniProt P17612)", "T1 construct": "purchased Eurofins (Millipore) KinaseProfiler, inferred from the naming style", "conditions": "MI891 @ 1 µM", "experimental": "(§1) To evaluate the selectivity of MI891, an off-target profiling study was performed using a panel of 58 kinases."}, "EphB4(h)": {"target": "EphB4(h) (Homo sapiens, UniProt P54760)", "conditions": "MI891 @ 1 µM", "experimental": "as §1"}, "Mnk2(h)": {"target": "T2, Mnk2(h) (Homo sapiens, UniProt Q9HBH9)", "T2 construct": "purchased Eurofins (Millipore) KinaseProfiler, inferred from the naming style", "conditions": "MI891 @ 1 µM", "experimental": "as §1"}, "MLK1(h)": {"target": "T3, MLK1(h) (Homo sapiens, UniProt P80192)", "T3 construct": "purchased Eurofins (Millipore) KinaseProfiler, inferred from the naming style", "T3 sequence (P80192 whole entry)": "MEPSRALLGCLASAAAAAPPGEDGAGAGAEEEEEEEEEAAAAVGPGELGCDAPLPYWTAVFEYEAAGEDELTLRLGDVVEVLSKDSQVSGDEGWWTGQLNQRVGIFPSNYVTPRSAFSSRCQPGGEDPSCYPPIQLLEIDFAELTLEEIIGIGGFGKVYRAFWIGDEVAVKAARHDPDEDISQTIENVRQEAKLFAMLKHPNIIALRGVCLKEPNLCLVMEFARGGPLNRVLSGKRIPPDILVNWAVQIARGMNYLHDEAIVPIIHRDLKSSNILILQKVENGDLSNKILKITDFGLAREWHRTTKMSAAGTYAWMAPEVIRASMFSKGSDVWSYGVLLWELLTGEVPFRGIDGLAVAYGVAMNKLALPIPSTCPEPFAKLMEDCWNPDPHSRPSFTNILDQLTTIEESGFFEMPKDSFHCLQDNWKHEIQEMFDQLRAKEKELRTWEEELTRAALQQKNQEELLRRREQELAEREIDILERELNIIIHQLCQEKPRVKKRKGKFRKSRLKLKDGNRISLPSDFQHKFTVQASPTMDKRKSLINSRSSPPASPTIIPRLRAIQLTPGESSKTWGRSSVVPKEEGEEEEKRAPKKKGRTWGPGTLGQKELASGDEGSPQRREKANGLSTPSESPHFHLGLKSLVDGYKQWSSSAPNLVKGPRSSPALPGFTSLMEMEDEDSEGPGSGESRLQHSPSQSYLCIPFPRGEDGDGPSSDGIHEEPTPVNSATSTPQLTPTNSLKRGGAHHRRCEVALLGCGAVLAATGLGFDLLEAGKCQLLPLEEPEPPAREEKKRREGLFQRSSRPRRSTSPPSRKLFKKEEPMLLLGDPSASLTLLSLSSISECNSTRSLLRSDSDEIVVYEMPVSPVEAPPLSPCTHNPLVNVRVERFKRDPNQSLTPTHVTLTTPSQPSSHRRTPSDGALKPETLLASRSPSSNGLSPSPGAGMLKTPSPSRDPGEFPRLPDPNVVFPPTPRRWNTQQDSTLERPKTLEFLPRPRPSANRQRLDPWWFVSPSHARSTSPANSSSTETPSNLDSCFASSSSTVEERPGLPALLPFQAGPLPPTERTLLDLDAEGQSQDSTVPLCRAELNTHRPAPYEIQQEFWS", "conditions": "MI891 @ 1 µM", "experimental": "as §1"}, "LOK(h)": {"target": "T4, LOK(h) (Homo sapiens, UniProt O94804)", "T4 construct": "purchased Eurofins (Millipore) KinaseProfiler, inferred from the naming style", "conditions": "MI891 @ 1 µM", "experimental": "as §1"}, "IKKα(h)": {"target": "IKKα(h) (Homo sapiens, UniProt O15111)", "sequence (O15111 whole entry)": "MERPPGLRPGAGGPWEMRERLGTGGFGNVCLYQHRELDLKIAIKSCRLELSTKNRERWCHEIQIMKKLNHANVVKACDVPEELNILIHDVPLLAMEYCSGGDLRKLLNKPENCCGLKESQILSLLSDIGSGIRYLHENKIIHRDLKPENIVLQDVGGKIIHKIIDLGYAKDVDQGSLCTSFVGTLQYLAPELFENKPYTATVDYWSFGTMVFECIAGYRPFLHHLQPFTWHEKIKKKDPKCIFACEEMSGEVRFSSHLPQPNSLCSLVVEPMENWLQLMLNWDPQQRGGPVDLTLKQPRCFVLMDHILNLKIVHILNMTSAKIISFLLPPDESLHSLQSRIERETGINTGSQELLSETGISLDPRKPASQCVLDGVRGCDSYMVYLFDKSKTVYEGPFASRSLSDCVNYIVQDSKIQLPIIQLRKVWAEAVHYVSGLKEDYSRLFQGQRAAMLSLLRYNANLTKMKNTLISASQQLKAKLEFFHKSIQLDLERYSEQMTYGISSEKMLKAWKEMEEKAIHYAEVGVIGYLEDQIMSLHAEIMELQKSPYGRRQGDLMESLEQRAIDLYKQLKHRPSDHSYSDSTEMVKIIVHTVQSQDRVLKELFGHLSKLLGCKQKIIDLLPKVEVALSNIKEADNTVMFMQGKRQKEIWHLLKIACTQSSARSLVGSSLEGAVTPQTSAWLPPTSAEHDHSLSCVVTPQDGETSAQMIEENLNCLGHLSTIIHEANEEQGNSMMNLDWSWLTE", "conditions": "MI891 @ 1 µM", "experimental": "as §1"}, "PAK2(h)": {"target": "T5, PAK2(h) (Homo sapiens, UniProt Q13177)", "T5 construct": "purchased Eurofins (Millipore) KinaseProfiler, inferred from the naming style", "conditions": "MI891 @ 1 µM", "experimental": "as §1"}, "JAK2(h)": {"target": "T6, JAK2(h) (Homo sapiens, UniProt O60674)", "T6 construct": "purchased Eurofins (Millipore) KinaseProfiler, inferred from the naming style", "conditions": "MI891 @ 1 µM", "experimental": "as §1"}, "ALK(h)": {"target": "ALK(h) (Homo sapiens, UniProt Q9UM73)", "conditions": "MI891 @ 1 µM", "experimental": "as §1"}, "PDGFRβ(h)": {"target": "T7, PDGFRβ(h) (Homo sapiens, UniProt P09619)", "T7 construct": "purchased Eurofins (Millipore) KinaseProfiler, inferred from the naming style", "conditions": "MI891 @ 1 µM", "experimental": "as §1"}, "KDR(h)": {"target": "T8, KDR(h) (Homo sapiens, UniProt P35968)", "T8 construct": "purchased Eurofins (Millipore) KinaseProfiler, inferred from the naming style", "conditions": "MI891 @ 1 µM", "experimental": "as §1"}, "MAPKAP-K2(h)": {"target": "T9, MAPKAP-K2(h) (Homo sapiens, UniProt P49137)", "T9 construct": "purchased Eurofins (Millipore) KinaseProfiler, inferred from the naming style", "conditions": "MI891 @ 1 µM", "experimental": "as §1"}, "NEK2(h)": {"target": "T10, NEK2(h) (Homo sapiens, UniProt P51955)", "T10 construct": "purchased Eurofins (Millipore) KinaseProfiler, inferred from the naming style", "T10 sequence (P51955 whole entry)": "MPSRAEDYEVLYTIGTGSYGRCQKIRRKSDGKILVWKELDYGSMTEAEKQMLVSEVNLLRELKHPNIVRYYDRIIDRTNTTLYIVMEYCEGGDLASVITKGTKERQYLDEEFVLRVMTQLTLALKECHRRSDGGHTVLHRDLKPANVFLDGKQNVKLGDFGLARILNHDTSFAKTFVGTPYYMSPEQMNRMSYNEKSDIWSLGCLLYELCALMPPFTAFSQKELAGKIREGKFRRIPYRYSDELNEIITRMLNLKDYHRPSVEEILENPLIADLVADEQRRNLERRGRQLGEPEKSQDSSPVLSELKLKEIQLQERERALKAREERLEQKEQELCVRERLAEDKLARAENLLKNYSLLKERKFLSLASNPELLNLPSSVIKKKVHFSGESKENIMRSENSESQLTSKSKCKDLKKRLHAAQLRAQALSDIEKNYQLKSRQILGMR", "conditions": "MI891 @ 1 µM", "experimental": "as §1"}, "[1]": {"target": "T11, PI3 Kinase (p110a/p85a)(h) (Homo sapiens, UniProt P42336)", "T11 construct": "purchased Eurofins (Millipore) KinaseProfiler, inferred from the naming style", "conditions": "MI891 @ 1 µM", "experimental": "as §1"}, "eEF-2K(h)": {"target": "eEF-2K(h) (Homo sapiens, UniProt O00418)", "conditions": "MI891 @ 1 µM", "experimental": "as §1"}, "DRAK1(h)": {"target": "DRAK1(h) (Homo sapiens, UniProt Q9UEE5)", "conditions": "MI891 @ 1 µM", "experimental": "as §1"}, "mTOR(h)": {"target": "T12, mTOR(h) (Homo sapiens, UniProt P42345)", "T12 construct": "purchased Eurofins (Millipore) KinaseProfiler, inferred from the naming style", "conditions": "MI891 @ 1 µM", "experimental": "as §1"}, "CDK6/cyclinD3(h)": {"target": "CDK6/cyclinD3(h) (Homo sapiens, UniProt Q00534)", "conditions": "MI891 @ 1 µM", "experimental": "as §1"}, "Aurora-A(h)": {"target": "Aurora-A(h) (Homo sapiens, UniProt O14965)", "conditions": "MI891 @ 1 µM", "experimental": "as §1"}, "PKCα(h)": {"target": "T13, PKCα(h) (Homo sapiens, UniProt P17252)", "T13 construct": "purchased Eurofins (Millipore) KinaseProfiler, inferred from the naming style", "conditions": "MI891 @ 1 µM", "experimental": "as §1"}, "IGF-1R(h)": {"target": "IGF-1R(h) (Homo sapiens, UniProt P08069)", "conditions": "MI891 @ 1 µM", "experimental": "as §1"}, "ASK1(h)": {"target": "ASK1(h) (Homo sapiens, UniProt Q99683)", "conditions": "MI891 @ 1 µM", "experimental": "as §1"}, "EphA5(h)": {"target": "EphA5(h) (Homo sapiens, UniProt P54756)", "conditions": "MI891 @ 1 µM", "experimental": "as §1"}, "p70S6K(h)": {"target": "T14, p70S6K(h) (Homo sapiens, UniProt P23443)", "T14 construct": "purchased Eurofins (Millipore) KinaseProfiler, inferred from the naming style", "conditions": "MI891 @ 1 µM", "experimental": "as §1"}, "Fyn(h)": {"target": "Fyn(h) (Homo sapiens, UniProt P06241)", "conditions": "MI891 @ 1 µM", "experimental": "as §1"}, "Pim-1(h)": {"target": "T15, Pim-1(h) (Homo sapiens, UniProt P11309)", "T15 construct": "purchased Eurofins (Millipore) KinaseProfiler, inferred from the naming style", "T15 sequence (P11309 whole entry)": "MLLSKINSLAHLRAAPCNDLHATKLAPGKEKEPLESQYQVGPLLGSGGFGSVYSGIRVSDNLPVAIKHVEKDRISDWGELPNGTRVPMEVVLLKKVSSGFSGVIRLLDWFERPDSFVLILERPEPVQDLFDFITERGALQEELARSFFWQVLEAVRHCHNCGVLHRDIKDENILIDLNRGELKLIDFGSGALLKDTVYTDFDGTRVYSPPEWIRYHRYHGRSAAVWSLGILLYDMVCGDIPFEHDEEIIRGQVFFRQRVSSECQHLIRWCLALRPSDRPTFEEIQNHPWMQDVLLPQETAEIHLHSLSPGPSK", "experimental": "as §1"}, "TAK1(h)": {"target": "T16, TAK1(h) (Homo sapiens, UniProt O43318)", "T16 construct": "purchased Eurofins (Millipore) KinaseProfiler, inferred from the naming style", "conditions": "MI891 @ 1 µM", "experimental": "as §1"}, "EGFR(h)": {"target": "EGFR(h) (Homo sapiens, UniProt P00533)", "conditions": "MI891 @ 1 µM", "experimental": "as §1"}, "PKG1α(h)": {"target": "T17, PKG1α(h) (Homo sapiens, UniProt Q13976)", "T17 construct": "purchased Eurofins (Millipore) KinaseProfiler, inferred from the naming style", "conditions": "MI891 @ 1 µM", "experimental": "as §1"}, "SRPK1(h)": {"target": "T18, SRPK1(h) (Homo sapiens, UniProt Q96SB4)", "T18 construct": "purchased Eurofins (Millipore) KinaseProfiler, inferred from the naming style", "conditions": "MI891 @ 1 µM", "experimental": "as §1"}, "[2]": {"target": "T19, PI3 Kinase (p110d/p85a)(h) (Homo sapiens, UniProt O00329)", "T19 construct": "purchased Eurofins (Millipore) KinaseProfiler, inferred from the naming style", "conditions": "MI891 @ 1 µM", "experimental": "as §1"}, "GSK3β(h)": {"target": "GSK3β(h) (Homo sapiens, UniProt P49841)", "conditions": "MI891 @ 1 µM", "experimental": "as §1"}, "PKCθ(h)": {"target": "T20, PKCθ(h) (Homo sapiens, UniProt Q04759)", "T20 construct": "purchased Eurofins (Millipore) KinaseProfiler, inferred from the naming style", "conditions": "MI891 @ 1 µM", "experimental": "as §1"}, "MST1(h)": {"target": "T21, MST1(h) (Homo sapiens, UniProt Q13043)", "T21 construct": "purchased Eurofins (Millipore) KinaseProfiler, inferred from the naming style", "conditions": "MI891 @ 1 µM", "experimental": "as §1"}, "Abl(h)": {"target": "Abl(h) (Homo sapiens, UniProt P00519)", "sequence (P00519 whole entry)": "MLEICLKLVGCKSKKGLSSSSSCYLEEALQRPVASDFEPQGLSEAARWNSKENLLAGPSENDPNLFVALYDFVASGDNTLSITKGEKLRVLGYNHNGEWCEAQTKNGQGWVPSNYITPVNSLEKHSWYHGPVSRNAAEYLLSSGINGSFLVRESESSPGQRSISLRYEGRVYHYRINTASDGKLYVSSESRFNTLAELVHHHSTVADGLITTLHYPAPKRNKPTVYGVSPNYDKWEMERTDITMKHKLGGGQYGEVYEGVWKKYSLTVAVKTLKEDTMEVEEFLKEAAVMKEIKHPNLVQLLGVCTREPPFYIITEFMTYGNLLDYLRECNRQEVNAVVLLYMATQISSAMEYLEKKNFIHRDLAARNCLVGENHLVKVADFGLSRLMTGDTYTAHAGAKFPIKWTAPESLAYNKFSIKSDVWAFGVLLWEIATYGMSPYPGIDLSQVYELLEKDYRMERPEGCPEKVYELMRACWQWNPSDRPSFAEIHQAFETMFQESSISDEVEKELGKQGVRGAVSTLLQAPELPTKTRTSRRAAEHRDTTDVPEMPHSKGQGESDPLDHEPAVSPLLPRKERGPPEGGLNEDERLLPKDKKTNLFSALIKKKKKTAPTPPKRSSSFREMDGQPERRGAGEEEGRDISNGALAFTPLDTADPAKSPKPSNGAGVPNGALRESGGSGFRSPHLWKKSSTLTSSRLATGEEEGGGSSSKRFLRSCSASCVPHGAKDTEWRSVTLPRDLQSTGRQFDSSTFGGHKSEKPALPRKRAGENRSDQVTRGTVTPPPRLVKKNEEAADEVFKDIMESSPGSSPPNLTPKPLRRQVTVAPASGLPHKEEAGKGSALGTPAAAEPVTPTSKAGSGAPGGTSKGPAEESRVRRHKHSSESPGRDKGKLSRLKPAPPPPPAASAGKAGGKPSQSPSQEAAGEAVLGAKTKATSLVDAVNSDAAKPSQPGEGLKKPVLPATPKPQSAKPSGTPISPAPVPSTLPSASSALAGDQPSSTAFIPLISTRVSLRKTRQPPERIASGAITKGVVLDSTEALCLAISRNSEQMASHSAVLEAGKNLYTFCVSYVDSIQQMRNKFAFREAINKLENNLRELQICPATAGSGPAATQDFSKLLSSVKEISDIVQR", "conditions": "MI891 @ 1 µM", "experimental": "as §1"}, "PKBα(h)": {"target": "T22, PKBα(h) (Homo sapiens, UniProt P31749)", "T22 construct": "purchased Eurofins (Millipore) KinaseProfiler, inferred from the naming style", "conditions": "MI891 @ 1 µM", "experimental": "as §1"}, "CDK2/cyclinA(h)": {"target": "CDK2/cyclinA(h) (Homo sapiens, UniProt P24941)", "conditions": "MI891 @ 1 µM", "experimental": "as §1"}, "CK2α2(h)": {"target": "CK2α2(h) (Homo sapiens, UniProt P19784)", "conditions": "MI891 @ 1 µM", "experimental": "as §1"}, "c-RAF(h)": {"target": "c-RAF(h) (Homo sapiens, UniProt P04049)", "sequence (P04049 whole entry)": "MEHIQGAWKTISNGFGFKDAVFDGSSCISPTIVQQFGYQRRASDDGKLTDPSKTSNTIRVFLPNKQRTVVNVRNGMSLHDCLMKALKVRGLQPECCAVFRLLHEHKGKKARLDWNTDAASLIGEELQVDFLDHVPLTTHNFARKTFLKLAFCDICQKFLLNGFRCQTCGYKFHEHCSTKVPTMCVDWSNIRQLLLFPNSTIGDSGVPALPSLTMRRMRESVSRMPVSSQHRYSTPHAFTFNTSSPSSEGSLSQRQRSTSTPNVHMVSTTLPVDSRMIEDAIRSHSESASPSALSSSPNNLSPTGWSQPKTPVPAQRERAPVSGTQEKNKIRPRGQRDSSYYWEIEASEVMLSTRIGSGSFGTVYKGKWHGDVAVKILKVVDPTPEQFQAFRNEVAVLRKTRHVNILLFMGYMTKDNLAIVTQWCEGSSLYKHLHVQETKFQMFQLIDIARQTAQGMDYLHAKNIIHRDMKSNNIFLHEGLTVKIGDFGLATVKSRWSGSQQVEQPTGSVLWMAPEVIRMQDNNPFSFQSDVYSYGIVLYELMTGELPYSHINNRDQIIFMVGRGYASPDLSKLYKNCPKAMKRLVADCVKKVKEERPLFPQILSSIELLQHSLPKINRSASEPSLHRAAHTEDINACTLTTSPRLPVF", "conditions": "MI891 @ 1 µM", "experimental": "as §1"}, "Plk3(h)": {"target": "T23, Plk3(h) (Homo sapiens, UniProt Q9H4B4)", "T23 construct": "purchased Eurofins (Millipore) KinaseProfiler, inferred from the naming style", "T23 sequence (Q9H4B4 whole entry)": "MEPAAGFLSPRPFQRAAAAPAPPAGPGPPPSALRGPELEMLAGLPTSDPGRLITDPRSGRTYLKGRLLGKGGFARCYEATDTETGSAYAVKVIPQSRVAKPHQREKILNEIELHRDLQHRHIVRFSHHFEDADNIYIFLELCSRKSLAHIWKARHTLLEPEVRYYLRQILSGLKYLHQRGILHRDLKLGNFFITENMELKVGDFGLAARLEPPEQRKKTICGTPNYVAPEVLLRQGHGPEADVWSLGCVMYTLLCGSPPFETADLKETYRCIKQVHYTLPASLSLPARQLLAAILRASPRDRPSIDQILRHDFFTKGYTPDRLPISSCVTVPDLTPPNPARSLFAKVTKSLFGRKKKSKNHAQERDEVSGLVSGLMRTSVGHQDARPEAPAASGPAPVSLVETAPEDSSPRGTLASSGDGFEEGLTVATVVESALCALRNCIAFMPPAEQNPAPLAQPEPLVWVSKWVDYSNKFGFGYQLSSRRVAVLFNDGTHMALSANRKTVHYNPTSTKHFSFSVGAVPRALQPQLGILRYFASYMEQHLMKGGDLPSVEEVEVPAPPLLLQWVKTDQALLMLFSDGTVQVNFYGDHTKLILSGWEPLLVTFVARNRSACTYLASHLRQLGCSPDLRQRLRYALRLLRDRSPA", "conditions": "MI891 @ 1 µM", "experimental": "as §1"}, "SAPK2a(h)": {"target": "T24, SAPK2a(h) (Homo sapiens, UniProt Q16539)", "T24 construct": "purchased Eurofins (Millipore) KinaseProfiler, inferred from the naming style", "conditions": "MI891 @ 1 µM", "experimental": "as §1"}}}
{"smiles": "NC(=O)c1cc(Cn2cc(-c3c(-c4ccc(Cl)cc4)nc4c(F)cc(F)cn34)nn2)ccc1Cl", "note": "[Compound 11, 2-Chloro-5-((4-(2-(4-chlorophenyl)-6,8-difluoroimidazo[1,2-a]pyridin-3-yl)-1H-1,2,3-triazol-1-yl)methyl)-benzamide]", "values": [{"measurement": "activity at 1 µM", "setting": "PKA(h)", "value": 108, "unit": "%"}, {"measurement": "activity at 1 µM", "setting": "EphB4(h)", "value": 97, "unit": "%"}, {"measurement": "activity at 1 µM", "setting": "Mnk2(h)", "value": 86, "unit": "%"}, {"measurement": "activity at 1 µM", "setting": "MLK1(h)", "value": 104, "unit": "%"}, {"measurement": "activity at 1 µM", "setting": "LOK(h)", "value": 94, "unit": "%"}, {"measurement": "activity at 1 µM", "setting": "IKKα(h)", "value": 104, "unit": "%"}, {"measurement": "activity at 1 µM", "setting": "PAK2(h)", "value": 84, "unit": "%"}, {"measurement": "activity at 1 µM", "setting": "JAK2(h)", "value": 101, "unit": "%"}, {"measurement": "activity at 1 µM", "setting": "ALK(h)", "value": 76, "unit": "%"}, {"measurement": "activity at 1 µM", "setting": "PDGFRβ(h)", "value": 86, "unit": "%"}, {"measurement": "activity at 1 µM", "setting": "KDR(h)", "value": 86, "unit": "%"}, {"measurement": "activity at 1 µM", "setting": "MAPKAP-K2(h)", "value": 101, "unit": "%"}, {"measurement": "activity at 1 µM", "setting": "NEK2(h)", "value": 103, "unit": "%"}, {"measurement": "activity at 1 µM", "setting": "[1]", "value": 92, "unit": "%"}, {"measurement": "activity at 1 µM", "setting": "eEF-2K(h)", "value": 112, "unit": "%"}, {"measurement": "activity at 1 µM", "setting": "DRAK1(h)", "value": 105, "unit": "%"}, {"measurement": "activity at 1 µM", "setting": "mTOR(h)", "value": 96, "unit": "%"}, {"measurement": "activity at 1 µM", "setting": "CDK6/cyclinD3(h)", "value": 92, "unit": "%"}, {"measurement": "activity at 1 µM", "setting": "Aurora-A(h)", "value": 81, "unit": "%"}, {"measurement": "activity at 1 µM", "setting": "PKCα(h)", "value": 97, "unit": "%"}, {"measurement": "activity at 1 µM", "setting": "IGF-1R(h)", "value": 99, "unit": "%"}, {"measurement": "activity at 1 µM", "setting": "ASK1(h)", "value": 91, "unit": "%"}, {"measurement": "activity at 1 µM", "setting": "EphA5(h)", "value": 106, "unit": "%"}, {"measurement": "activity at 1 µM", "setting": "p70S6K(h)", "value": 105, "unit": "%"}, {"measurement": "activity at 1 µM", "setting": "Fyn(h)", "value": 81, "unit": "%"}, {"measurement": "activity at 1 µM", "setting": "Pim-1(h); MI891 @ 1 µM", "value": 53, "unit": "%"}, {"measurement": "inhibition at 1 µM", "setting": "Pim-1(h); at 1 μM", "value": 53, "unit": "%"}, {"measurement": "activity at 1 µM", "setting": "TAK1(h)", "value": 90, "unit": "%"}, {"measurement": "activity at 1 µM", "setting": "EGFR(h)", "value": 103, "unit": "%"}, {"measurement": "activity at 1 µM", "setting": "PKG1α(h)", "value": 85, "unit": "%"}, {"measurement": "activity at 1 µM", "setting": "SRPK1(h)", "value": 98, "unit": "%"}, {"measurement": "activity at 1 µM", "setting": "[2]", "value": 98, "unit": "%"}, {"measurement": "activity at 1 µM", "setting": "GSK3β(h)", "value": 99, "unit": "%"}, {"measurement": "activity at 1 µM", "setting": "PKCθ(h)", "value": 90, "unit": "%"}, {"measurement": "activity at 1 µM", "setting": "MST1(h)", "value": 94, "unit": "%"}, {"measurement": "activity at 1 µM", "setting": "Abl(h)", "value": 104, "unit": "%"}, {"measurement": "activity at 1 µM", "setting": "PKBα(h)", "value": 100, "unit": "%"}, {"measurement": "activity at 1 µM", "setting": "CDK2/cyclinA(h)", "value": 106, "unit": "%"}, {"measurement": "activity at 1 µM", "setting": "CK2α2(h)", "value": 109, "unit": "%"}, {"measurement": "activity at 1 µM", "setting": "c-RAF(h)", "value": 101, "unit": "%"}, {"measurement": "activity at 1 µM", "setting": "Plk3(h)", "value": 113, "unit": "%"}, {"measurement": "activity at 1 µM", "setting": "SAPK2a(h)", "value": 99, "unit": "%"}]}
